Source: patent US10597388B2, “Pyridazinone herbicides” (FMC CORPORATION, priority 2014, dated 2020)

Columns and labels:
Assay in all cases: Test D controlled growth environment herbicide test, pre- and postemergence
Format in all cases: in vivo
[1] = tested on: bromegrass, downy (downy bromegrass, Bromus tectorum)
In short: (§1)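 Pre-emergence: seeds sown in silt loam soil were sprayed with compound in a non-phytotoxic solvent mix containing surfactant. Post-emergence: plants at 2 to 18 cm (1- to 4-leaf stage) in peat moss/vermiculite medium got the same formulation. Visual 0–100 rating versus controls after 14 to 21 d.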

[2] = tested on: bluegrass (annual bluegrass, Poa annua)
In short: as §1

[3] = tested on: lambsquarters (Chenopodium album)
In short: as §1

[4] = tested on: wheat, spring (spring wheat, Triticum aestivum)
In short: as §1

[5] = tested on: buckwheat, wild (wild buckwheat, Polygonum convolvulus)
In short: as §1

[6] = tested on: barley, winter (winter barley, Hordeum vulgare)
In short: as §1

[7] = tested on: windgrass (Apera spica-venti)
In short: as §1

[8] = tested on: galium (catchweed bedstraw, Galium aparine)
In short: as §1

[9] = tested on: canarygrass (Phalaris minor)
In short: as §1

[10] = tested on: pigweed (Amaranthus retroflexus)
In short: as §1

[11] = tested on: blackgrass (Alopecurus myosuroides)
In short: as §1

[12] = tested on: foxtail, green (green foxtail, Setaria viridis)
In short: as §1

[13] = tested on: ryegrass, Italian (Italian ryegrass, Lolium multiflorum)
In short: as §1

[14] = Postemergence, 31 g ai/ha, scale 0 to 100 (0 no effect, 100 complete control)
[15] = Postemergence, 125 g ai/ha, visual rating on scale 0 (no effect) to 100 (complete control), 14 to 21 d
[16] = Postemergence, 250 g ai/ha, scale 0 to 100 (0 no effect, 100 complete control)
[17] = Preemergence, 62 g ai/ha, scale 0 to 100 (0 no effect, 100 complete control)
[18] = Preemergence, 125 g ai/ha, scale 0 to 100 (0 no effect, 100 complete control)
[19] = Preemergence, 250 g ai/ha, scale 0 to 100, 0 no effect, 100 complete control
[20] = postemergence, 62 g ai/ha, scale 0 to 100, 0 no effect, 100 complete control

Structure (SMILES): Cc1ccc2ccccc2c1-c1c(OC(=O)OC(C)C)c(C)nn(C)c1=O [Compound 72]
- Bromegrass, Downy plant response rating [1, 14]: 45
- Plant response rating, Bromegrass, Downy [1, 15]: 65
- Plant response rating, Bromegrass, Downy [1, 16]: 75
- Plant response rating (scale of 0 to 100), Bromegrass, Downy ([1]; Preemergence, 31 g ai/ha): 0
- Plant response rating, Bromegrass, Downy [1, 17]: 0
- Plant response rating, Bromegrass, Downy [1, 18]: 35
- Plant response rating, Bromegrass, Downy [1, 19]: 60
- Plant response rating, Bromegrass, Downy [1, 20]: 55
- Bluegrass plant response rating [2, 14]: 20
- Plant response rating, Bluegrass [2, 15]: 40
- Plant response rating, Bluegrass [2, 16]: 55
- Plant response rating (scale of 0 to 100), Bluegrass ([2]; Preemergence, 31 g ai/ha): 10
- Plant response rating, Bluegrass [2, 17]: 25
- Plant response rating, Bluegrass [2, 18]: 25
- Plant response rating, Bluegrass [2, 19]: 50
- Plant response rating, Bluegrass [2, 20]: 35
- Lambsquarters plant response rating [3, 14]: 80
- Plant response rating, Lambsquarters [3, 15]: 90
- Plant response rating, Lambsquarters [3, 16]: 100
- Plant response rating (scale of 0 to 100), Lambsquarters ([3]; Preemergence, 31 g ai/ha): 35
- Plant response rating, Lambsquarters [3, 17]: 100
- Plant response rating, Lambsquarters [3, 18]: 95
- Plant response rating, Lambsquarters [3, 19]: 95
- Plant response rating, Lambsquarters [3, 20]: 95
- Wheat, Spring plant response rating [4, 14]: 40
- Plant response rating, Wheat, Spring [4, 15]: 60
- Plant response rating, Wheat, Spring [4, 16]: 70
- Plant response rating (scale of 0 to 100), Wheat, Spring ([4]; Preemergence, 31 g ai/ha): 0
- Plant response rating, Wheat, Spring [4, 17]: 35
- Plant response rating, Wheat, Spring [4, 18]: 65
- Plant response rating, Wheat, Spring [4, 19]: 80
- Plant response rating, Wheat, Spring [4, 20]: 50
- Buckwheat, Wild plant response rating [5, 14]: 95
- Plant response rating, Buckwheat, Wild [5, 15]: 100
- Plant response rating, Buckwheat, Wild [5, 16]: 100
- Plant response rating (scale of 0 to 100), Buckwheat, Wild ([5]; Preemergence, 31 g ai/ha): 0
- Plant response rating, Buckwheat, Wild [5, 17]: 0
- Plant response rating, Buckwheat, Wild [5, 18]: 15
- Plant response rating, Buckwheat, Wild [5, 19]: 10
- Plant response rating, Buckwheat, Wild [5, 20]: 100
- Barley, Winter plant response rating [6, 14]: 10
- Plant response rating, Barley, Winter [6, 15]: 30
- Plant response rating, Barley, Winter [6, 16]: 35
- Plant response rating (scale of 0 to 100), Barley, Winter ([6]; Preemergence, 31 g ai/ha): 5
- Plant response rating, Barley, Winter [6, 17]: 25
- Plant response rating, Barley, Winter [6, 18]: 50
- Plant response rating, Barley, Winter [6, 19]: 75
- Plant response rating, Barley, Winter [6, 20]: 20
- Windgrass plant response rating [7, 14]: 65
- Plant response rating, Windgrass [7, 15]: 80
- Plant response rating, Windgrass [7, 16]: 85
- Plant response rating (scale of 0 to 100), Windgrass ([7]; Preemergence, 31 g ai/ha): 25
- Plant response rating, Windgrass [7, 17]: 65
- Plant response rating, Windgrass [7, 18]: 80
- Plant response rating, Windgrass [7, 19]: 90
- Plant response rating, Windgrass [7, 20]: 75
- Galium plant response rating [8, 14]: 95
- Plant response rating, Galium [8, 15]: 100
- Plant response rating, Galium [8, 16]: 100
- Plant response rating (scale of 0 to 100), Galium ([8]; Preemergence, 31 g ai/ha): 20
- Plant response rating, Galium [8, 17]: 60
- Plant response rating, Galium [8, 18]: 70
- Plant response rating, Galium [8, 19]: 85
- Plant response rating, Galium [8, 20]: 100
- Canarygrass plant response rating [9, 14]: 40
- Plant response rating, Canarygrass [9, 15]: 80
- Plant response rating, Canarygrass [9, 16]: 85
- Plant response rating (scale of 0 to 100), Canarygrass ([9]; Preemergence, 31 g ai/ha): 0
- Plant response rating, Canarygrass [9, 17]: 80
- Plant response rating, Canarygrass [9, 18]: 85
- Plant response rating, Canarygrass [9, 19]: 95
- Plant response rating, Canarygrass [9, 20]: 50
- Pigweed plant response rating [10, 14]: 95
- Plant response rating, Pigweed [10, 15]: 100
- Plant response rating, Pigweed [10, 16]: 100
- Plant response rating (scale of 0 to 100), Pigweed ([10]; Preemergence, 31 g ai/ha): 35
- Plant response rating, Pigweed [10, 17]: 85
- Plant response rating, Pigweed [10, 18]: 95
- Plant response rating, Pigweed [10, 19]: 100
- Plant response rating, Pigweed [10, 20]: 100
- Blackgrass plant response rating [11, 14]: 40
- Plant response rating, Blackgrass [11, 15]: 75
- Plant response rating, Blackgrass [11, 16]: 80
- Plant response rating (scale of 0 to 100), Blackgrass ([11]; Preemergence, 31 g ai/ha): 15
- Plant response rating, Blackgrass [11, 17]: 30
- Plant response rating, Blackgrass [11, 18]: 55
- Plant response rating, Blackgrass [11, 19]: 75
- Plant response rating, Blackgrass [11, 20]: 70
- Foxtail, Green plant response rating [12, 14]: 60
- Plant response rating, Foxtail, Green [12, 15]: 70
- Plant response rating, Foxtail, Green [12, 16]: 75
- Plant response rating (scale of 0 to 100), Foxtail, Green ([12]; Preemergence, 31 g ai/ha): 20
- Plant response rating, Foxtail, Green [12, 17]: 30
- Plant response rating, Foxtail, Green [12, 18]: 60
- Plant response rating, Foxtail, Green [12, 19]: 85
- Plant response rating, Foxtail, Green [12, 20]: 65
- Ryegrass, Italian plant response rating [13, 14]: 95
- Plant response rating, Ryegrass, Italian [13, 15]: 95
- Plant response rating, Ryegrass, Italian [13, 16]: 100
- Plant response rating (scale of 0 to 100), Ryegrass, Italian ([13]; Preemergence, 31 g ai/ha): 55
- Plant response rating, Ryegrass, Italian [13, 17]: 75
- Plant response rating, Ryegrass, Italian [13, 18]: 100
- Plant response rating, Ryegrass, Italian [13, 19]: 90
- Plant response rating, Ryegrass, Italian [13, 20]: 95
